Laboratory results as given in US7834005B2, “Pyrrolobenzodiazepine derivatives, compositions comprising the same and methods related thereto” (The United States of America as represented by the …, priority 2003, dated 2010).
Several values for one entry are separate records, joined by “and”; a condition that tells them apart may be missing. Equal entries are not always repeated.

Key:
Parameters in all cases: species or system athymic mice
[1] = in vivo efficacy, MDA-MB-435 (breastca) subcutaneous tumor model; conditions: athymic, mouse, in vivo; MDA-MB-435, Early-SC, Q4D X3, intravenous
Experimental: (§1) NSC 694501 was evaluated for in vivo efficacy in athymic mice bearing 8 subcutaneous tumor models: LOX and UACC-62 (melanoma), OVCAR-3 and OVCAR-5 (ovarian ca), MDA-MB-435 (breastca), SF-295 and C-6 (glioma), and LS-174T (colonca). The models were selected on the basis of hollow fiber assays and in vitro time course assays.
(§2) A qDx5 schedule conferred better efficacy than a q4Dx3 schedule in each of the 4 models tested on two schedules. NSC 694501 was active over a wide dosage range in athymic mice using compound prepared fresh just prior to injection in 1% EtOH vehicle: On a qDx5 schedule, the maximum tolerated dose was approximately 120 μg/kg/dose and the minimum effective dose in one of the most sensitive models (SF-295) was 16 μg/kg/dose.

MDA-MB-435 (breastca) = test: as above; conditions: MDA-MB-435, Early-SC, Q4D X3, 0.45 mg/kg/dose, intravenous
Experimental: as §1, §2

OVCAR-5 (ovarian ca) = test: in vivo efficacy, OVCAR-5 (ovarian ca) subcutaneous tumor model; conditions: OVCAR-5, Early-SC, intravenous
Experimental: as §1, §2

SF-295 (glioma) = test: in vivo efficacy, SF-295 (glioma) subcutaneous tumor model; conditions: for BW Loss / Growth Delay % [(T − C)/C] / Optimal % T/C / value in parentheses in Growth Delay column / tumor free (tf): SF-295, Early-SC, intravenous
Experimental: as §1, §2

[2] = as above; conditions: athymic, mouse, in vivo, SF-295, Early-SC
Experimental: as §1, §2

SMILES: C=C1C[C@H]2C=Nc3cc(OCCCOc4cc5c(cc4OC)C(=O)N4CC(=C)C[C@H]4C=N5)c(OC)cc3C(=O)N2C1 [NSC 694501]
- MTD at 9 days [1]: 0.45 mg/kg
- BW Loss (MDA-MB-435 (breastca)): 19.8%
- Growth Delay % [(T − C)/C] (MDA-MB-435 (breastca)): 41%
- Optimal % T/C (MDA-MB-435 (breastca)): 3%
- tumor free (tf) (MDA-MB-435 (breastca)): 1 tf
- BW Loss (OVCAR-5 (ovarian ca); Q4D X3, 0.45 mg/kg/dose): 21.2%
- Growth Delay % [(T − C)/C] (OVCAR-5 (ovarian ca); Q4D X3, 0.45 mg/kg/dose): 32%
- Optimal % T/C (OVCAR-5 (ovarian ca); Q4D X3, 0.45 mg/kg/dose): 38%
- BW Loss (OVCAR-5 (ovarian ca); QD X5, 0.081 mg/kg/dose): 2.6%
- Growth Delay % [(T − C)/C] (OVCAR-5 (ovarian ca); QD X5, 0.081 mg/kg/dose): 102%
- Optimal % T/C (OVCAR-5 (ovarian ca); QD X5, 0.081 mg/kg/dose): 13%
- BW Loss (SF-295 (glioma); Q4D X3, 0.11 mg/kg/dose): 0.1%
- Growth Delay % [(T − C)/C] (SF-295 (glioma); Q4D X3, 0.11 mg/kg/dose): 60%
- Optimal % T/C (SF-295 (glioma); Q4D X3, 0.11 mg/kg/dose): 10%
- value in parentheses in Growth Delay column (SF-295 (glioma); Q4D X3, 0.11 mg/kg/dose): 0.0 L
- BW Loss (SF-295 (glioma); Q4D X3, 0.16 mg/kg/dose): 4.3%
- Growth Delay % [(T − C)/C] (SF-295 (glioma); Q4D X3, 0.16 mg/kg/dose): 103%
- Optimal % T/C (SF-295 (glioma); Q4D X3, 0.16 mg/kg/dose): 3%
- value in parentheses in Growth Delay column (SF-295 (glioma); Q4D X3, 0.16 mg/kg/dose): 0.9 L
- BW Loss (SF-295 (glioma); Q4D X3, 0.24 mg/kg/dose): 10.2%
- Growth Delay % [(T − C)/C] (SF-295 (glioma); Q4D X3, 0.24 mg/kg/dose): 227%
- Optimal % T/C (SF-295 (glioma); Q4D X3, 0.24 mg/kg/dose): 1 (1 tf) %
- tumor free (tf) (SF-295 (glioma); Q4D X3, 0.24 mg/kg/dose): 1 (1 tf)
- value in parentheses in Growth Delay column (SF-295 (glioma); Q4D X3, 0.24 mg/kg/dose): 3.2 L
- BW Loss (SF-295 (glioma); Q4D X3, <0.30 mg/kg/dose): 24.0%
- tumor free (tf) (SF-295 (glioma); Q4D X3, <0.30 mg/kg/dose, T/C unevaluable): ue (2 tf)
- BW Loss (SF-295 (glioma); QD X5, 0.016 mg/kg/dose): 0.0%
- Growth Delay % [(T − C)/C] (SF-295 (glioma); QD X5, 0.016 mg/kg/dose): 31%
- Optimal % T/C (SF-295 (glioma); QD X5, 0.016 mg/kg/dose): 33%
- BW Loss (SF-295 (glioma); QD X5, 0.024 mg/kg/dose): 3.6%
- Growth Delay % [(T − C)/C] (SF-295 (glioma); QD X5, 0.024 mg/kg/dose): 61%
- Optimal % T/C (SF-295 (glioma); QD X5, 0.024 mg/kg/dose): 12%
- BW Loss (SF-295 (glioma); QD X5, 0.036 mg/kg/dose): 3.5%
- Growth Delay % [(T − C)/C] (SF-295 (glioma); QD X5, 0.036 mg/kg/dose): 69%
- Optimal % T/C (SF-295 (glioma); QD X5, 0.036 mg/kg/dose): 14%
- BW Loss (SF-295 (glioma); QD X5, 0.054 mg/kg/dose): 4.7% and 2.8%
- Growth Delay % [(T − C)/C] (SF-295 (glioma); QD X5, 0.054 mg/kg/dose): 165% and 206%
- Optimal % T/C (SF-295 (glioma); QD X5, 0.054 mg/kg/dose): 2% and 0%
- tumor free (tf) (SF-295 (glioma); QD X5, 0.054 mg/kg/dose): 1 tf
- value in parentheses in Growth Delay column (SF-295 (glioma); QD X5, 0.054 mg/kg/dose): 2.6 L and 3.0 L
- BW Loss (SF-295 (glioma); QD X5, 0.08 mg/kg/dose): 0.0%
- Growth Delay % [(T − C)/C] (SF-295 (glioma); QD X5, 0.08 mg/kg/dose): 131%
- Optimal % T/C (SF-295 (glioma); QD X5, 0.08 mg/kg/dose): 3%
- value in parentheses in Growth Delay column (SF-295 (glioma); QD X5, 0.08 mg/kg/dose): 2.0 L
- BW Loss (SF-295 (glioma); QD X5, 0.12 mg/kg/dose): 7.5% and 5.3%
- Growth Delay % [(T − C)/C] (SF-295 (glioma); QD X5, 0.12 mg/kg/dose): 241% and 196%
- Optimal % T/C (SF-295 (glioma); QD X5, 0.12 mg/kg/dose): 4 (4 tf) % and 2 (2 tf) %
- tumor free (tf) (SF-295 (glioma); QD X5, 0.12 mg/kg/dose): 4 (4 tf) and 2 (2 tf)
- value in parentheses in Growth Delay column (SF-295 (glioma); QD X5, 0.12 mg/kg/dose): 3.1 L and 3.2 L
- minimum effective dose (SF-295 (glioma); SF-295, qDx5 schedule, athymic mice): 16 μg/kg/dose
- MTD at 9 days ([2]; Q4D X3, intravenous): < 0.3 mg/kg
- MTD at 5 days ([2]; QD X5, intravenous): 0.12 mg/kg
